Assay results as given in ChEMBL document CHEMBL4138138, “Addressing the Metabolic Stability of Antituberculars through Machine Learning” (ACS Med Chem Lett, 2017).
≈ marks a conversion by molar mass, not a printed value.

Tests used:
[1] = Half life in mouse liver microsomes; format: ADME, microsome
[2] = Intrinsic clearance in mouse liver microsomes; format: ADME, microsome; conditions: read-out: CLH
[3] = tested on: Mycobacterium tuberculosis; test: Antimycobacterial activity against Mycobacterium tuberculosis H37Rv measured after 1 week by resazurin assay; format: functional; conditions: 168 h
[4] = Cytotoxicity against African green monkey Vero cells assessed as reduction in cell viability after 72 hrs by MTS/PMS assay; format: cell-based; conditions: chlorocebus sabaeus
[5] = Selectivity index, ratio of CC50 for African green monkey Vero cells to MIC for Mycobacterium tuberculosis H37Rv; format: toxicity; conditions: read-out: Selectivity Index

## CC(C)(C)C1CCc2c(sc3nc(SCc4ccc([N+](=O)[O-])cc4)nc(N)c23)C1 (configuration not stated)
[1]
  half-life: 34.3 min
[2]
  microsomal CLint: 20.1 µL/min/mg
[3]
  MIC: > 200 µg/mL
[4]
  CC50 at 72 h: > 50 µg/mL

## Cc1ccc(CSc2nc(N)c3c4c(sc3n2)CC(C(C)(C)C)CC4)o1 (configuration not stated)
[1]
  half-life: 19.7 min
[2]
  microsomal CLint: 35.1 µL/min/mg
[3]
  MIC: 200 µg/mL (≈ 516 µM)
[4]
  CC50 at 72 h: 3.1 µg/mL (≈ 8 µM)

## CC(C)(C)C1CCc2c(sc3nc(SCc4ccc(C(=O)O)cc4)nc(N)c23)C1 (configuration not stated)
[1]
  half-life: 95 min
[2]
  microsomal CLint: 7.3 µL/min/mg
[3]
  MIC: 25 to 50 µg/mL (≈ 58.5 to 117 µM)
[4]
  CC50 at 72 h: 50 µg/mL (≈ 117 µM)

## Cn1nccc1CSc1nc(N)c2c3c(sc2n1)CC(C(C)(C)C)CC3 (configuration not stated)
[1]
  half-life: 60.8 min
[2]
  microsomal CLint: 11.4 µL/min/mg
[3]
  MIC: 10 µg/mL (≈ 25.8 µM)
[4]
  CC50 at 72 h: 100 µg/mL (≈ 258 µM)
[5]
  selectivity ratio: 10

## COc1ccc([N+](=O)[O-])cc1CSc1nc(N)c2c3c(sc2n1)CC(C(C)(C)C)CC3 (configuration not stated)
[1]
  half-life: 87.7 min
[2]
  microsomal CLint: 7.9 µL/min/mg
[3]
  MIC: > 200 µg/mL
[4]
  CC50 at 72 h: 12.5 µg/mL (≈ 27.3 µM)

## Cc1cc(CSc2nc(N)c3c4c(sc3n2)CC(C(C)(C)C)CC4)no1 (configuration not stated)
[1]
  half-life: 19 min

## Cc1cccc(CSc2nc(N)c3c4c(sc3n2)CC(C(C)(C)C)CC4)n1 (configuration not stated)
[1]
  half-life: 17 min
[2]
  microsomal CLint: 40.8 µL/min/mg
[3]
  MIC: > 200 µg/mL
[4]
  CC50 at 72 h: 25 µg/mL (≈ 62.7 µM)

## Cc1nc(CSc2nc(N)c3c4c(sc3n2)CC(C(C)(C)C)CC4)sc1C (configuration not stated)
[1]
  half-life: 21.7 min
[2]
  microsomal CLint: 31.9 µL/min/mg
[3]
  MIC: 100 to 200 µg/mL (≈ 239 to 478 µM)
[4]
  CC50 at 72 h: 1.6 µg/mL (≈ 3.82 µM)

## Cc1ccc(CSc2nc(N)c3c4c(sc3n2)CC(C(C)(C)C)CC4)s1 (configuration not stated)
[1]
  half-life: 31.8 min
[2]
  microsomal CLint: 21.8 µL/min/mg
[3]
  MIC: > 200 µg/mL
[4]
  CC50 at 72 h: 12.5 µg/mL (≈ 31 µM)

## CC(C)(C)C1CCc2c(sc3nc(SCc4ccnn4C4CCCCO4)nc(N)c23)C1 (configuration not stated)
[1]
  half-life: 60.3 min
[2]
  microsomal CLint: 11.5 µL/min/mg
[3]
  MIC: 25 µg/mL (≈ 54.6 µM)
[4]
  CC50 at 72 h: 6.2 µg/mL (≈ 13.5 µM)

## NNC(=O)c1ccncc1 [ISONIAZID]
[3]
  MIC: 0.039 µg/mL (≈ 0.284 µM)

## CC(C)(C)C1CCc2c(sc3nc(SCc4cccc([N+](=O)[O-])c4)nc(N)c23)C1 (configuration not stated)
[1]
  half-life: 47.5 min
[2]
  microsomal CLint: 14.6 µL/min/mg
[3]
  MIC: 10 µg/mL (≈ 23.3 µM)
[4]
  CC50 at 72 h: > 200 µg/mL
[5]
  selectivity ratio: > 20

## CC(C)(C)C1CCc2c(sc3nc(SCc4cc([N+](=O)[O-])ccc4O)nc(N)c23)C1 (configuration not stated)
[1]
  half-life: 58.2 min
[2]
  microsomal CLint: 11.9 µL/min/mg
[3]
  MIC: 200 µg/mL (≈ 450 µM)
[4]
  CC50 at 72 h: 50 µg/mL (≈ 112 µM)

## CCOC(=O)CSc1nc(N)c2c3c(sc2n1)CC(C(C)(C)C)CC3 (configuration not stated)
[1]
  half-life: < 1 min
[2]
  microsomal CLint: > 1390 µL/min/mg
[3]
  MIC: 0.19 to 0.38 µg/mL (≈ 0.501 to 1 µM)
[4]
  CC50 at 72 h: 45 µg/mL (≈ 119 µM)
[5]
  selectivity ratio: 120 to 240

## CC(C)(C)C1CCc2c(sc3nc(SCc4ccc(C(=O)O)cc4[N+](=O)[O-])nc(N)c23)C1 (configuration not stated)
[1]
  half-life: 120 min
[2]
  microsomal CLint: 5.8 µL/min/mg
[3]
  MIC: 12.5 to 25 µg/mL (≈ 26.4 to 52.9 µM)
[4]
  CC50 at 72 h: > 50 µg/mL

## CC(C)(C)C1CCc2c(sc3nc(SCc4ccc5c(c4)OCO5)nc(N)c23)C1 (configuration not stated)
[1]
  half-life: 64.2 min
[2]
  microsomal CLint: 10.8 µL/min/mg
[3]
  MIC: > 200 µg/mL
[4]
  CC50 at 72 h: > 50 µg/mL

## CC(C)(C)C1CCc2c(sc3nc(SCc4nccs4)nc(N)c23)C1 (configuration not stated)
[1]
  half-life: 66.6 min
